Experimental findings from patent US12501919B2, “Method for increasing anthocyanin content in carrots” (UNIVERSITY OF COPENHAGEN, priority 2016, dated 2025) are described below.

“Also recorded” adds a separate entry of the source.

The subject of experiment [1] is black carrot (Deep Purple) roots. In words: Field trial, foliar spray on black carrot, large plots with successive harvests 7 to 35 weeks after planting. In kind it is in vivo, Daucus carota ssp. sativus var. atrorubens Alef. Here is the method:
(§1) The experiment consisted on a factorial combination of […] (Deep Purple F1) and three sowing dates: 19 May 2014, and 18 and 25 May 2015, in field trials in Taastrup, Denmark, at the experimental station in Højbakkegård (latitude 55, longitude […]). Seeds were provided by Chr. Hansen A/S. Plants were cultivated on loamy soil. Air temperatures during the growing period were slightly different in both years of cultivation (mean values of 2 years: 15.4 and 14.6° C., May-October). Rainfall was complemented by irrigation throughout carrot growth to avoid water stress. The routine techniques of cultivation and plant protection, recommended for carrot crop production were applied.
(§2) Plots were arranged in a randomized block design with three replications. In the three sowing dates, each plot consisted of three 4.5 m-long rows. Additionally, plots of three 12 m-long rows were arranged in 18 May 2015. 2-Chloroethylphosphonic acid solution (CERONE® brand ETHEPHON, 39.9% Bayer CropScience, Leverkusen, Germany) was applied as a foliar spray avoiding the rainy days, at rates of 0, 120 and 360 g·ha^−1 a.i. in 2014; 0, 360, and 720 g·ha^−1 a.i. in 2015 for small plots; and 0 and 360 g·ha^−1 a.i. for large plots. Applications were made using a CO2 backpack spaced 50 cm apart, beginning 6 weeks after planting and continuing every 3 weeks, for a total of 6 applications.
Large plots (12 m-long rows) were harvested several times from separate row segments, during the growing period from 30 Jun. 2015 to 19 Jan. 2016 (7, 10, 13, 16, 19, 22, 25, 26, 29 and 35 weeks after planting). Carrot production was estimated in large plots 21 weeks after planting: two meters per row was dug from each plot, and the carrots were washed and weighed. Measured weights were extrapolated to tons per hectare. […]
Soluble solids were calculated with a digital refractometer with automatic temperature compensation and operating range from 0 to 53° Brix. […]
Dry matter was determined by the mass difference between the fresh sample and the dry sample. […] The results were expressed as percentage of dry matter. […]
TMC was measured spectrophotometrically based on the pH differential method, with slight modifications. The carrot extract was diluted by adding 20 volumes of 0.2 M KCl-HCl pH 1, and TMC was measured at […] and 700 nm (to correct for sediment) using a UV-Vis spectrophotometer (Evolution™ 220, Thermo Fischer Scientific, Waltham, MA, USA). The TMC was expressed as cyaniding-3-glucoside equivalents (ppm). […]

The subject of experiment [2] is black carrot (Deep Purple F1) roots. In words: Field trial, foliar spray on black carrot, small plots harvested 21 weeks after sowing. In kind it is in vivo, Daucus carota ssp. sativus var. atrorubens Alef. The conditions noted are these: for increase of mean anthocyanin concentration of treated plants compared with respective controls: 21 weeks after sowing, foliar spray, 6 applications; for accumulation of anthocyanin in roots: field-applied, measured twenty-one weeks after sowing (FIG. 1, FIG. 2). As for the experimental part: as §1, §2
Small plots (4.5 m-long rows) were harvested 21 weeks after sowing. The roots were manually harvested from the middle part of each row.
In all analyses, 20 whole carrot roots per plot were washed and split lengthwise: 20 halves were ground in liquid nitrogen, and the generated powder was stored at −80° C. for further gene expression analyses; the complementary 20 halves were coarsely ground in a commercial blender, and 50 g of the resulting purée were immediately homogenized in 50 g of a 3% sulfuric acid solution (v/v), by using a Waring two-speed commercial blender (VWR—Bie & Berntsen, Herlev, Denmark). The resulting fine purée (4 g) was subsequently mixed with demineralized water (8 g) and vortexed. After incubation for 1 h at room temperature, the sample was centrifuged 20 min at 4500 rpm, and the supernatant (extract) was utilized for further analyses.
Soluble solids were calculated with a digital refractometer with automatic temperature compensation and operating range from 0 to 53° Brix. For its calculation, the carrot extract obtained was filtered through 0.45 μm membrane filters, and Brix measurements were performed using 1 mL of the filtrate. For each measurement, two technical replicates were made and their average was reported.
Dry matter was determined by the mass difference between the fresh sample and the dry sample. The sample was dried 24 h until it reached a constant weight using an oven at 90° C. The results were expressed as percentage of dry matter. For each measurement, two technical replicates were made and their average was reported.
TMC was measured spectrophotometrically based on the pH differential method, with slight modifications. The carrot extract was diluted by adding 20 volumes of 0.2 M KCl-HCl pH 1, and TMC was measured at […] and 700 nm (to correct for sediment) using a UV-Vis spectrophotometer (Evolution™ 220, Thermo Fischer Scientific, Waltham, MA, USA). The TMC was expressed as cyaniding-3-glucoside equivalents (ppm).
All analyses were performed with three technical and three biological replicates. Data were subjected to statistical analysis using SPSS software (version 22, SPSS Inc., Chicago, IL, USA). Treatments were compared using one-way analysis of variance (ANOVA) followed by a Tukey post hoc test. p<0.05 was considered significant.

[3] abbreviates: treated plants versus controls (FIG. 1).

On to `O=P(O)(O)CCCl` [2-Chloroethylphosphonic acid], for which, in experiment [1] (7 weeks after the application of the last treatment (22 to 27 weeks after planting) (FIG. 3A)), the “TMC after the last application” value is reported as “continued to increase”. In experiment [1] (at each harvest time (FIG. 4)), the “root length, treated versus untreated carrots” value was “differed insignificantly”. The “root weight, treated versus untreated carrots” value in experiment [1] (at each harvest time (FIG. 4)) was “differed insignificantly”. Besides, the “mean anthocyanin concentration (TMC) of treated roots versus untreated” value in experiment [1] (at every harvest point, 7 to 35 weeks after planting, 360 g ha^-1 a.i.) is recorded as “higher”. Moreover, the “effect of total amount applied on the accumulation of anthocyanin” value in experiment [2] (120, 360 and 720 g ha^-1 a.i. treatments compared, either growing season) is given as “no differences were found; also recorded: nonsignificant effect”. For the same compound, the results for the “increase of mean anthocyanin concentration of treated plants compared with respective controls” value in experiment [2] (Harvest 1 (first of three repetitions of two growing seasons)), in experiment [2] (Harvest 2 (second of three repetitions)) and in experiment [2] (Harvest 3 (third of three repetitions)) were 49%, 38% and 65%, respectively. The root weight result in experiment [2] (either growing season (FIG. 1)) was “did not affect”. For the same compound, the “accumulation of anthocyanin in roots” value in experiment [2] was “induced the accumulation of anthocyanin”; in experiment [2] (listed as ethylene-releasing compound), “increased amounts of anthocyanin; also recorded: induced the accumulation of anthocyanin”. Further, the “increase of mean anthocyanin concentration in the roots of treated plants compared with respective controls (summary)” value in experiment [2] (pre-harvest foliar spraying on black carrot leaves, over all repetitions) is reported as “more than 35%”. The “dry weight (DW)” value in experiment [2] (setting [3]) is reported as “lowest values”. In addition, in experiment [2] (setting [3]), the “soluble sugar content (SSC)” value is “lowest values”. The “root colour in cross and longitudinal sections” value in experiment [2] (treated roots versus untreated roots with white core (FIG. 2)) is “solid purple colour”.
